Results taken from US10213527B2, “Functionalized titanium binding peptides and implants coated with same” (Ben-Gurion University of the Negev Research and Development …, priority 2012, dated 2019).
“Also recorded” adds a separate entry of the source. Each block holds one molecule with its values, some of them ahead of it. Non-standard residues stand in square brackets, D forms with d. Residues, ends and D or L forms follow the SMILES beside them. No end group written: not given here. pS = N[C@@H](COP(=O)(O)O)C(=O)O

How the values were obtained:
[1] = Chromatography of PpSer on TiO2 anatase column (bicarbonate and NaOH elution gradients); format: binding
Source text: Chromatography on TiO2 Surfaces: as described in Golan Gertler, Gideon Fleminger and Hanna Rapaport. Langmuir 2010, 26(9), 6457-6463, and further illustrated in FIG. 3. Stainless steel (4.6_50 mm) column was packed with TiO2 anatase (Sachtopore NP 10μ/100 A°, particle size/pore size respectively) suspended in methanol. The packed columns were washed consecutively with water and 0.1 M NaOH to desorb surface contaminants. The columns were then pre-equilibrated with the running buffer. Lyophilized peptides were dissolved in the running buffer (0.2 mg/mL) and centrifuged at 5000 g for 5 min prior to injection into the column to remove possible aggregates. The supernatants (100 μL) were injected on to the TiO2 column at a flow rate of 0.02 mL/min to attain 40 min retention time for adsorption. After 65 minutes, the flow rate was increased to 0.5 mL/min. Ten millimolar Tris and phosphate buffer solutions, pH 7.4, were used as adsorption (running) media. In addition, these buffers complemented by 150 mM NaCl (TBS, PBS, respectively) were also examined. Elution was carried out by gradients of the following solutions applied consecutively to the column: 1 M NaCl, 80% acetonitrile, 200 mM sodium phosphate, and 0.1 M NaOH, monitored at 215-280 nm. The chromatograms were obtained at room temperature using 0.2 μm filtered (Millipore, Badford, Mass.) solutions.
The peptide dissolved in two different running buffer, Tris buffer saline (TBS) and sodium bicarbonate saline (BCS). The affinity of functional groups to TiO2 from previous works was known to be PO4^−3>HCO3^−>COO^−. (The diagonal line in the chromatography is the elution gradient: 0-200 mM sodium bicarbonate & 0-0.1M NaOH).
Peptides that bind to TiO2 only through Glutamic acid functional groups will elute in BC gradient, however peptides that bind to TiO2 through pSer functional groups will elute in the NaOH gradient.
The idea behind using BCS as running buffer is to block the surface with carbonate ions before the peptide injection.

[2] = Adsorption of sodium phenyl phosphate dibasic to TiO2 microparticles (solution depletion); format: binding; design: Difference in concentration of the solution between the initial and the final one: unit: mg/ml; details: TiO2 microparticles 1.8 mg/ml, TBS
Description: Several solutions of sodium phenyl phosphate dibasic with different concentrations, dissolved in the same TBS, were allowed to adsorb to TiO2 microparticles (1.8 mg/ml in 1 ml). Table 6, herein below lists the initial concentrations and the difference in concentration of the solution between the initial and the one following adsorption. According to Table 6, the phenyl phosphate adsorbs only at concentrations lower than 0.25 mg/ml probably because at higher concentrations the compound undergoes some aggregation and stays only in the solution. This adsorption behavior is unusual and therefore no binding affinity constants were determined.

[3] = Calcium-phosphate adsorption on peptide coated TiO2 surfaces (XPS); details: Ca—P solution 24 h at 37° C.; FIG. 17B
Description: Surfaces were incubated in TBS solution for 45 min in room temperature, and then the surfaces were incubated in 0.4 mg ml^−1 peptide-TBS 10 mM solution for 1 hr at room temperature and were dried with nitrogen. Peptide coating were analyzed by XPS.
The ability to absorb calcium-phosphate (Ca—P) ions by the different peptide coatings were measured using Ca—P solution. The solution was prepared at physiological pH and contained K2HPO4 (1.0 mM), CaCl2.2H2O (2.5 mM), dissolved consecutively in deionized water at 37° C. and buffered at pH ˜7.4 using 50 mM Trizma™ base and an appropriate volume of 1M HCl. Coated surfaces were incubated in Ca—P solution at 37° C. for 24 h.
However it contradicts the β-cpSer adsorption isotherm result. This phenomenon can be explained by the different surface topography and surface area between TiO2 particles and TiO2 surface, adsorption surface area at adsorption isotherm experiment is 1.123 m^2 and the surface area is 10^−4 m^2. At small surface areas, the difference between peptides' adsorption cannot be observed. In order to examine the influence of the Glu tail on calcified mineralization process, titanium oxide surfaces were coated with pSer peptide or with the control peptides (cpSer or β-cpSer) and incubated for 24 hours inside calcium-phosphate solution (see Materials and Methods). Atomic concentrations of calcium and phosphorus were compared with titanium as measured by XPS.

[4] = Adsorption isotherm onto TiO2 particles, Sips equation fitting; format: binding; details: 10 mM TBS pH 7.4, 1 h room temperature; Sips fit
Description: The adsorption of all three peptides to TiO2 particles were measured with peptides solution in a range of concentrations from 0.002 to 0.524 mM in 10 mM TBS solution. TiO2 particles were suspended in TBS 10 mM, pH 7.4, to a final concentration of 1.8 mg/ml. To each test tube containing 0.5 ml of peptide at different concentrations, 0.5 ml of TiO2 particles solution was added. The samples were continuously mixed with a tube rotator for 1 h at room temperature. To precipitate the TiO2 particles, the test tubes were centrifuged at 5000 rpm for 3 minutes and the absorption of the supernatant was measured at 280 nm using a microplate-reader (BioTek instruments). Peptide concentration was determined based on calibration curve of each peptide prepared in TBS solution. In order to describe the adsorption of molecules on TiO2 particles surface the sips equation, also known as the Langmuir-Freundlich equation (1), was used:
[formula] where S is the amount of adsorbed molecules (mol m^−2), Smax is the maximum amount of molecules adsorbed (mol m^−2), C is their concentration is solution at equilibrium (mM), k is the association coefficient (M^−1) and α is the constant representing this distribution.^30
Peptide adsorption and desorption conditions were characterized by HPLC. A column was packed with micrometer size particles of the TiO2 anatase phase (see Materials and Methods). […]

[5] = HPLC chromatography on TiO2 anatase microparticle column (Example 2); format: binding; details: 0.4 mg/ml in TBS (10 mM, pH=7.4) loading buffer
Description: A stainless steel (4.6×50 mm) column was packed with TiO2 anatase (Sachtopore NP 10μ/100 Å, particle size/pore size respectively) suspended in methanol. The packed column was washed consecutively with water and 0.1 M NaOH to desorb surface contaminants. The column was then pre-equilibrated with the loading/running buffer. The chromatographic process was performed on a HPLC system (Algient Technologies, 1260 Infinity, Germany). Peptides dissolved in the loading/running buffer (0.4 mg/ml) were sonicated for 10 minutes and centrifuged at […] for 8 minutes and were injected to the TiO2 column at a flow rate of 0.02 ml/min to attain ˜40 minutes retention time for adsorption. 10 mM tris buffered saline pH 7.4 (TBS) was used as adsorption/running media. After 65 minutes, the flow rate was increased to 0.5 ml/min. Elution was carried out by gradients of 200 mM sodium bicarbonate solution pH 7.4 and 0.1 M NaOH. Elution was monitored at 280 nm. All solutions were filtered using 0.2 μm filters (Millipore, Badford, Mass.).
Peptide adsorption and desorption conditions were characterized by HPLC. A column was packed with micrometer size particles of the TiO2 anatase phase (see Materials and Methods). Tris buffer saline (TBS), pH 7.4, served as a loading buffer. […]

[6] = BCS (sodium bicarbonate saline) running buffer, FIG. 7B

- fraction of the peptide able to displace the carbonate ions and bind TiO2 through pSer [1, 6]: ⅔ and two-thirds
- fraction of the peptide that can't displace the carbonate ions, bonded to them, eluted at BC gradient [1, 6]: ⅓ and about one third
Molecule: O=C(O)CC[C@H](NC(=O)[C@H](CCC(=O)O)NC(=O)[C@H](CCC(=O)O)NC(=O)[C@H](CCC(=O)O)NC(=O)[C@H](CCC(=O)O)NC(=O)CNC(=O)CNC(=O)CNC(=O)[C@H](Cc1c[nH]c2ccccc12)NC(=O)[C@H](COP(=O)(O)O)NC(=O)[C@H](Cc1c[nH]c2ccccc12)NC(=O)[C@H](COP(=O)(O)O)NC(=O)[C@@H]1CCCN1)C(=O)O [PpSer, Pro-pSer-Trp-pSer-Trp-(Gly)3-(Glu)5] (H-P[pS]W[pS]WGGGEEEEE-OH; N-terminus and C-terminus assumed)
- mode of binding to TiO2 on the column ([1]; TBS running buffer, 10 mM pH 7.4, FIG. 7A): bonded to TiO2 through pSer functional groups

Molecule: O=P([O-])([O-])Oc1ccccc1.[Na+].[Na+] [sodium phenyl phosphate dibasic]
- Difference in concentration of the solution between the initial and the final one ([2]; 0.0625 mg/ml in adsorbing solution): 0.02365
- Difference in concentration of the solution between the initial and the final one ([2]; 0.125 mg/ml in adsorbing solution): 0.02083
- Difference in concentration of the solution between the initial and the final one ([2]; 0.25 mg/ml in adsorbing solution): 0.008776
- Difference in concentration of the solution between the initial and the final one ([2]; 0.5 mg/ml in adsorbing solution): ~0
- Difference in concentration of the solution between the initial and the final one ([2]; 1 mg/ml in adsorbing solution): ~0
- concentrations at which the compound adsorbs to TiO2 microparticles [2]: lower than 0.25 mg/ml

Molecule: Pro-Ser(phos)-Phe-Ser(phos)-Trp-(Gly)3-(Glu)5 (P[pS]F[pS]WGGGEEEEE) [pSer]
- calcium and phosphate adsorbed by coated surfaces (atomic ratio of P and Ca to Ti) [3]: significantly higher calcium and phosphate concentration; also recorded: adsorbs more Ca and P ions

Molecule: Pro-Ser(phos)-Ser(phos)-Phe-Trp-(Gly)3 (P[pS][pS]FWGGG) [β-cpSer]
- calcium and phosphate adsorbed by coated surfaces (atomic ratio of P and Ca to Ti) [3]: approximately the same calcium and phosphate concentrations
- Smax, maximum amount of molecules adsorbed to TiO2 surface [4]: 7.48E−7 mol · m^−2

Molecule: Pro-pSer-Phe-pSer-Trp-(Gly)3 (P[pS]F[pS]WGGG) [cpSer, control peptide lacking the stretch of the Glu residues]
- calcium and phosphate adsorbed by coated surfaces (atomic ratio of P and Ca to Ti) [3]: approximately the same calcium and phosphate concentrations

- adsorption to the oxide [5]: does not adsorb
Molecule: Trp-Glu
